Laboratory results: publication PMC8371461 (Frontiers in Pharmacology, 2021)

Columns and labels:
MST4 = target: T1, MST4 (Homo sapiens, UniProt Q9P289); assay: kinome scan; type: binding; conditions: 10 µM
T1 construct: purchased DiscoverX (KINOMEscan)

MST1 = target: T2, MST1 (Homo sapiens, UniProt Q13043); assay: kinome scan; type: binding; conditions: 10 µM
T2 construct: purchased DiscoverX (KINOMEscan)

EGFR(T790M) = target: T3, EGFR(T790M) (Homo sapiens, UniProt P00533, T790M); assay: kinome scan; type: binding; conditions: 10 µM
T3 construct: purchased DiscoverX (KINOMEscan)

NDR1 = target: T4, NDR1 (Homo sapiens, UniProt Q15208); assay: kinome scan; type: binding; conditions: 10 µM
T4 construct: purchased DiscoverX (KINOMEscan)

STK39 = target: T5, STK39 (Homo sapiens, UniProt Q9UEW8); assay: kinome scan; type: binding; conditions: 10 µM
T5 construct: purchased DiscoverX (KINOMEscan)

AXL = target: T6, AXL (Homo sapiens, UniProt P30530); assay: kinome scan; type: binding; conditions: 10 µM
T6 construct: purchased DiscoverX (KINOMEscan)

[1] = target: T7, ABL1(E255K)-phosphorylated (Homo sapiens, UniProt P00519, E255K); assay: kinome scan; type: binding; conditions: 10 µM
T7 construct: purchased DiscoverX (KINOMEscan)

ULK1 = target: T8, ULK1 (Homo sapiens, UniProt O75385); assay: kinome scan; type: binding; conditions: 10 µM
T8 construct: purchased DiscoverX (KINOMEscan)

ROCK1 = target: T9, ROCK1 (Homo sapiens, UniProt Q13464); assay: kinome scan; type: binding; conditions: 10 µM
T9 construct: purchased DiscoverX (KINOMEscan)

LZK = target: T10, LZK (Homo sapiens, UniProt O43283); assay: kinome scan; type: binding; conditions: 10 µM
T10 construct: purchased DiscoverX (KINOMEscan)

[2] = target: T11, RSK2(Kin.Dom.1-N-terminal) (Homo sapiens, UniProt P51812); assay: kinome scan; type: binding; conditions: 10 µM
T11 construct: RSK2(Kin.Dom.1-N-terminal); purchased DiscoverX (KINOMEscan)

MLK2 = target: T12, MLK2 (Homo sapiens, UniProt Q02779); assay: kinome scan; type: binding; conditions: 10 µM
T12 construct: purchased DiscoverX (KINOMEscan)

CAMK1G = target: T13, CAMK1G (Homo sapiens, UniProt Q96NX5); assay: kinome scan; type: binding; conditions: 10 µM
T13 construct: purchased DiscoverX (KINOMEscan)

PIM1 = target: T14, PIM1 (Homo sapiens, UniProt P11309); assay: kinome scan; type: binding
T14 construct: purchased DiscoverX (KINOMEscan)

[3] = tested on: Tau Fibril Formation, Thioflavin T Binding; parameters: method as in CHEMBL1614421; conditions: reported activity, data mining; ref CHEMBL1614421; cited from earlier work
KIT(D816H) = target: T15, KIT(D816H) (Homo sapiens, UniProt P10721, D816H); assay: kinome scan; type: binding; conditions: 10 µM
T15 construct: purchased DiscoverX (KINOMEscan)

PRKG2 = target: T16, PRKG2 (Homo sapiens, UniProt Q13237); assay: kinome scan; type: binding; conditions: 10 µM
T16 construct: purchased DiscoverX (KINOMEscan)

EPHB3 = target: T17, EPHB3 (Homo sapiens, UniProt P54753); assay: kinome scan; type: binding; conditions: 10 µM
T17 construct: purchased DiscoverX (KINOMEscan)

MST3 = target: T18, MST3 (Homo sapiens, UniProt Q9Y6E0); assay: kinome scan; type: binding; conditions: 10 µM
T18 construct: purchased DiscoverX (KINOMEscan)

WEE2 = target: T19, WEE2 (Homo sapiens, UniProt P0C1S8); assay: kinome scan; type: binding; conditions: 10 µM
T19 construct: purchased DiscoverX (KINOMEscan)

PSC = assay: LC3B positive autophagosomes, immunofluorescent staining; type: cell-based, mouse; conditions: 10 µM, three days
Procedure: Cells were fixed with PBS containing 0.5% of para-formaldehyde for 15 min at room temperature. After three washing steps in PBS, cells were permeabilized with PBS containing 0.3% of Triton X-100 (Sigma) for 1 h at room temperature. After washing with PBS three times, cells were incubated overnight with the anti-LC3B antibody in PBS with 1% bovine serum albumin (Sigma) at 4°C. After three washing steps in PBS, cells were incubated with the fluorescent secondary antibody for 90 min at 4°C in PBS with 1% bovine serum albumin. They were then incubated with […] DAPI (Thermofisher) in PBS for 15 min. After washing with PBS, cells were rinsed once in water prior to mounting in the FluorSave reagent (Millipore).
Depending of these transitory environmental conditions, autophagy can either promote survival or apoptosis ([Degtyarev et al., 2008]). PIK/AKT pathway inhibition has been reported to increase cell autophagy ([Palmieri et al., 2017]). More specifically, PIP4K2C has been described as a down-regulator of autophagy ([Sharma et al., 2019]).

FLT1 = target: T20, FLT1 (Homo sapiens, UniProt P17948); assay: kinome scan; type: binding; conditions: 10 µM
T20 construct: purchased DiscoverX (KINOMEscan)

ICK = target: T21, ICK (Homo sapiens, UniProt Q9UPZ9); assay: kinome scan; type: binding; conditions: 10 µM
T21 construct: purchased DiscoverX (KINOMEscan)

CAMK4 = target: T22, CAMK4 (Homo sapiens, UniProt Q16566); assay: kinome scan; type: binding; conditions: 10 µM
T22 construct: purchased DiscoverX (KINOMEscan)

VRK2 = target: T23, VRK2 (Homo sapiens, UniProt Q86Y07); assay: kinome scan; type: binding; conditions: 10 µM
T23 construct: purchased DiscoverX (KINOMEscan)

FGFR3(G697C) = target: T24, FGFR3(G697C) (Homo sapiens, UniProt P22607, G697C); assay: kinome scan; type: binding; conditions: 10 µM
T24 construct: purchased DiscoverX (KINOMEscan)

PAK6 = target: T25, PAK6 (Homo sapiens, UniProt Q9NQU5); assay: kinome scan; type: binding; conditions: 10 µM
T25 construct: purchased DiscoverX (KINOMEscan)

EPHA8 = target: T26, EPHA8 (Homo sapiens, UniProt P29322); assay: kinome scan; type: binding; conditions: 10 µM
T26 construct: purchased DiscoverX (KINOMEscan)

T14 sequence (P11309 whole entry): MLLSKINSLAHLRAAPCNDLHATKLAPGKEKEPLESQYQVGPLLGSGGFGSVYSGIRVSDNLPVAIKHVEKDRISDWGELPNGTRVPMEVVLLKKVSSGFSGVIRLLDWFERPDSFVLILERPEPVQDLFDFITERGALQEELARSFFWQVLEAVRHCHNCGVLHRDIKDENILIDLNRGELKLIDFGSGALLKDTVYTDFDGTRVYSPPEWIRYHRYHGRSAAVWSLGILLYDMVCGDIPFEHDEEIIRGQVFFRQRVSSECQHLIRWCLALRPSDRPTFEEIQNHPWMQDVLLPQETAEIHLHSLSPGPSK
T6 sequence (P30530 26-894): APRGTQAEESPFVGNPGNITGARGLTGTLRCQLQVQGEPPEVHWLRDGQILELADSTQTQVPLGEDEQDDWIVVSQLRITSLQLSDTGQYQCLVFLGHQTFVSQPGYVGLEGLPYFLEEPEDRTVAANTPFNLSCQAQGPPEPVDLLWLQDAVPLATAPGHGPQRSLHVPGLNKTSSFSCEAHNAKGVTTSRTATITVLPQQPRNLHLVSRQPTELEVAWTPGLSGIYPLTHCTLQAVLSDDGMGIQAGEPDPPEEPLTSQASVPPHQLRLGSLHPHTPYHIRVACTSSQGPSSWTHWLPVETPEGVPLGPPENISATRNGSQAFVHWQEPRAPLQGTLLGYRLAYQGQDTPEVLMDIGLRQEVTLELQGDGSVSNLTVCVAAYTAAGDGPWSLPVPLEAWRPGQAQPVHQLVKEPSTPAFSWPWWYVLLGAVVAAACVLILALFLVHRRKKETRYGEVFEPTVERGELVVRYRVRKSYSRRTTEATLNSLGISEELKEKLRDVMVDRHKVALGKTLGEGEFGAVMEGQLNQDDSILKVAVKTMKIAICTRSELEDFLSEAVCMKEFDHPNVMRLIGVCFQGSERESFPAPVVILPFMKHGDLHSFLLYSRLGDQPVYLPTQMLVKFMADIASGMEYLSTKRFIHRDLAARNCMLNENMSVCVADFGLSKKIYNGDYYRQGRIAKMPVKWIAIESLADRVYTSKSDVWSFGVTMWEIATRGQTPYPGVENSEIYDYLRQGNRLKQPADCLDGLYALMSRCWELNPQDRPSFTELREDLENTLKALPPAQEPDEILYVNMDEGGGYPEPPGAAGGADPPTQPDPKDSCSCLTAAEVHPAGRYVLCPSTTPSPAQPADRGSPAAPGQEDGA
T18 sequence (Q9Y6E0 whole entry): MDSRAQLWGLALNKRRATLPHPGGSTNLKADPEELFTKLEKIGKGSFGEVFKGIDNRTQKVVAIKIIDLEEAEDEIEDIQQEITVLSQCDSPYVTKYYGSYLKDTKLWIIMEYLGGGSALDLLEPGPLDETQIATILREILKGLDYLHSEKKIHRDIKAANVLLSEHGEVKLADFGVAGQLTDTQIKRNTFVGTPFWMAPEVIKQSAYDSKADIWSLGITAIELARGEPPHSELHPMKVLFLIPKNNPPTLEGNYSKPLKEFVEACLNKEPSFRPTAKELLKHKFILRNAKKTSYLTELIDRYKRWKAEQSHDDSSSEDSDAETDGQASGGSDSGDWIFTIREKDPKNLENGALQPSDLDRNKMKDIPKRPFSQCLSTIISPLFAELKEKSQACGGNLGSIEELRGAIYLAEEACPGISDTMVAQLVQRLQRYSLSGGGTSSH
T11 sequence (P51812 68-327 limits assumed): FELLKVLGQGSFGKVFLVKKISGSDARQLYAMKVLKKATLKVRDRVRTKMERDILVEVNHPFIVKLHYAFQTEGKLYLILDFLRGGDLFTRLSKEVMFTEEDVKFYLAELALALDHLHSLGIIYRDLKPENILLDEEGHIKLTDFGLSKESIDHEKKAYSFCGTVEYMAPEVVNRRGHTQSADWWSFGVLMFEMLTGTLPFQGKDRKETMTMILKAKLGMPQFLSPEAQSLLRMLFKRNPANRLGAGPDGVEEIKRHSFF
T23 sequence (Q86Y07 whole entry): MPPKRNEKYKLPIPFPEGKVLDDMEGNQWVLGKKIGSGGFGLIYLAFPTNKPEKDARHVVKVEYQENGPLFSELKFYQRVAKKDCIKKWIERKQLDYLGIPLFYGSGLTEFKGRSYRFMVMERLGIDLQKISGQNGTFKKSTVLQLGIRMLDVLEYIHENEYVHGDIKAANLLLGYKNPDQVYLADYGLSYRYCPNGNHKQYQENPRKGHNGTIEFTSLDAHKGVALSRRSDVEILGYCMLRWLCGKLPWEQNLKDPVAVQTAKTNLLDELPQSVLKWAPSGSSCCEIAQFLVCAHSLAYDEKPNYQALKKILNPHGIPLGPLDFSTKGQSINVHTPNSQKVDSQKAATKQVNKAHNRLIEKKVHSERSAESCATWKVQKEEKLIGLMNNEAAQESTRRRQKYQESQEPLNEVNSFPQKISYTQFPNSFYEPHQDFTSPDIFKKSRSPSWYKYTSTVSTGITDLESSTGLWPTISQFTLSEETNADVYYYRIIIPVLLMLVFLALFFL
T3 sequence (P00533 25-1210 T790M): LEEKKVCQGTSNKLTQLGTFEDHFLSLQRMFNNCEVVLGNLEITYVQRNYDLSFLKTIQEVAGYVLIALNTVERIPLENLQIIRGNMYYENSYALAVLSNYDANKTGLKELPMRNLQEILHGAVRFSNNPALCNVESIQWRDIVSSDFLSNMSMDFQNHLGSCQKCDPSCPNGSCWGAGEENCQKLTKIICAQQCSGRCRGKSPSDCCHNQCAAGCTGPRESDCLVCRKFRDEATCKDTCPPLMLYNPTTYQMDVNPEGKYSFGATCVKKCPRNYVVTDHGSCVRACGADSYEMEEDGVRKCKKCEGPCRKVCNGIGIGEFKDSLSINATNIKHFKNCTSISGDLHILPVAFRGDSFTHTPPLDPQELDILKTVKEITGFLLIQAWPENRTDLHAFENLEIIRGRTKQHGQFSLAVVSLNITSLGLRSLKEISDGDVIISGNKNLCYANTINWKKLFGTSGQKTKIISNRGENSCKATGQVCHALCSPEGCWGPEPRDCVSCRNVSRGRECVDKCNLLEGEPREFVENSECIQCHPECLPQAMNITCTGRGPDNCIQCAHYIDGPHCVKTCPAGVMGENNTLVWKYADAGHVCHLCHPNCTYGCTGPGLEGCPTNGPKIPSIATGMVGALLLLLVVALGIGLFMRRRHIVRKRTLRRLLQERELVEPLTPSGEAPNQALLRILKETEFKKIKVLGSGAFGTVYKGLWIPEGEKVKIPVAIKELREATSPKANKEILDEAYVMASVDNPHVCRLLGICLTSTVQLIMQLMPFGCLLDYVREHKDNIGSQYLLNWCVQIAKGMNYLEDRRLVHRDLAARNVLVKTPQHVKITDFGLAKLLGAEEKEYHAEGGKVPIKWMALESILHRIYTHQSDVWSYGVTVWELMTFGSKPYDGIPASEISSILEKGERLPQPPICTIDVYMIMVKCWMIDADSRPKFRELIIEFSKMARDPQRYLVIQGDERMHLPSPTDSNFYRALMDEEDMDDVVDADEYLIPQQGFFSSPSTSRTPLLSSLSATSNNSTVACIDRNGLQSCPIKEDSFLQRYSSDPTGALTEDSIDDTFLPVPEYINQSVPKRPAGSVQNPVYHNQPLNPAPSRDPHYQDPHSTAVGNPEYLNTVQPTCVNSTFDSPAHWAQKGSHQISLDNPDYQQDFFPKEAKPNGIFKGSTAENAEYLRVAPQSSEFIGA
T2 sequence (Q13043 whole entry): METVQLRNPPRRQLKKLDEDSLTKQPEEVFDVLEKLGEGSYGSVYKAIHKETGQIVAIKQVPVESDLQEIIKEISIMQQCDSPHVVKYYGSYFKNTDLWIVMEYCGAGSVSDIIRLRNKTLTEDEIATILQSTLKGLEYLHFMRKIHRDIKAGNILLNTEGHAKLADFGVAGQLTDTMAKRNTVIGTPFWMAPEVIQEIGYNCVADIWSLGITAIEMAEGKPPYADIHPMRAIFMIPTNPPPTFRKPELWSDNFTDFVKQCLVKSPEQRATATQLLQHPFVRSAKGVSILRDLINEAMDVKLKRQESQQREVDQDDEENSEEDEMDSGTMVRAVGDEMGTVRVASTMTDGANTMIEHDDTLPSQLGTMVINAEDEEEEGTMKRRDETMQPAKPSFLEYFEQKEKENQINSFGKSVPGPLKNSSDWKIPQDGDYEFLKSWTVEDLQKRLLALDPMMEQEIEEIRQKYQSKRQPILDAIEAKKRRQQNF
T21 sequence (Q9UPZ9 whole entry): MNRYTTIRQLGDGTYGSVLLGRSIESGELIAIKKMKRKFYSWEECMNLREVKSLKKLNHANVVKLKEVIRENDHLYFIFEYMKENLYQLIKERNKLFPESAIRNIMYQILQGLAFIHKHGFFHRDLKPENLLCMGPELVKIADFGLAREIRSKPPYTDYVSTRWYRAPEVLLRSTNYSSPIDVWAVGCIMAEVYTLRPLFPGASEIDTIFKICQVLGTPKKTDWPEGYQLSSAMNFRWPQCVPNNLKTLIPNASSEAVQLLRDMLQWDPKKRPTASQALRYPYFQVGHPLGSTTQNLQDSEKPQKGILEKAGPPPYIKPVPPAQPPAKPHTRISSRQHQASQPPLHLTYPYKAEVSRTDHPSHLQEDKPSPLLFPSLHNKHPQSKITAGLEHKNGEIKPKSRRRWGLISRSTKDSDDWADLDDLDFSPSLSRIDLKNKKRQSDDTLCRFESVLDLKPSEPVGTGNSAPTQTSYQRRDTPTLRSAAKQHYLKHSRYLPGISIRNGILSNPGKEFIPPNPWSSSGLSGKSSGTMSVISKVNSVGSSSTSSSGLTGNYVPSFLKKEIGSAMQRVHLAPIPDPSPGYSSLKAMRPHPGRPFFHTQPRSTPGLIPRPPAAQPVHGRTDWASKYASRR

Compound `Nc1ccc(N=Nc2ccccc2)c(N)n1` [phenazopyridine, 2,6-diamino-3-(phenylazo)pyridine] has a kinase inhibition (MST4) of 96, a kinase inhibition (MST1) of 88 and a kinase inhibition (EGFR(T790M)) of 100. It also gave a kinase inhibition (NDR1) of 100, a kinase inhibition (STK39) of 100 and a kinase inhibition (AXL) of 100. It also gave a kinase inhibition [1] of 62, a kinase inhibition (ULK1) of 100 and a kinase inhibition (ROCK1) of 78. The kinase inhibition (LZK) was 100, the kinase inhibition [2] was 100 and the kinase inhibition (MLK2) was 100. The kinase inhibition (CAMK1G) was 88, the “remaining binding (% of control)” value (PIM1; 10 µM) was 100 and the remaining binding at 10 µM (PIM1; read-out: Kinome scan (% of control at 10 µM)) was 100%. The Concentration [3] was 3.9 µM, the kinase inhibition (KIT(D816H)) was 85 and the kinase inhibition (PRKG2) was 81. The kinase inhibition (EPHB3) was 85, the kinase inhibition (MST3) was 98 and the kinase inhibition (WEE2) was 100. For the same compound, the “number of LC3B-positive autophagosomes” value (PSC) was “increased”, the “remaining binding (% of control)” value (FLT1) was 90 and the kinase inhibition (ICK) was 90. It also gave a kinase inhibition (CAMK4) of 67, a kinase inhibition (VRK2) of 86 and a kinase inhibition (FGFR3(G697C)) of 100. It also gave a kinase inhibition (PAK6) of 100 and a kinase inhibition (EPHA8) of 86.
